Reference: patent US6365341B1, “Stabilization of highly sensitive nucleic acid stains in aqueous solutions” (priority 2000, dated 2002)

Legend:
[1] = Dyes that are stabilized by the additive TPABr: t½ in 1xTAPS buffer; conditions: 1xTAPS pH 8.2, with or without 14.6 mM TPABr; transillumination at 300 nm
[2] = Dye stabilization in gels: GelStar-prestained agarose gels with additives, 6 days at 45° C., intensity of a 2.5 ng DNA band; format: physicochemical; conditions: GelStar in gel, 6 days in the dark
Method: SeaKem LE agarose gels (1% w/v, BMA Inc) were cast in 1×TAPS buffer (3-(N-tris(hydroxymethyl)methylamino)-propanesulfonic acid, 40 mM) in the presence of 1×GelStar nucleic acid stain (BMA Inc) and additives indicated in Table 1. Gels were incubated in the dark for 6 days at 45° C., and tested for the detection of DNA as follows: Gels were submerged in 1×TAPS electrophoresis buffer without dye. Then DNA was electrophoresed through the gel at 20 V/cm for one hour. The intensity of a 2.5 ng DNA band was examined by transillumination at 300 nm. The stain in the gel was considered stabilized if the fluorescence intensity of the DNA was more than 80% compared to when the gel was freshly prepared with stain. […] The quality of DNA resolution in fresh gels were recorded as “Good” when the DNA band was sharp, “Fair” when the DNA band was broad, and “Poor” when the DNA band was fuzzy.

[3] = buffer, pH 8.2
[4] = Dye stabilization in solution: t½ of fluorescence intensity with lambda DNA; conditions: Table 3

CN1CCN(c2ccc3[nH]c(-c4ccc5[nH]c(-c6ccc(O)cc6)nc5c4)nc3c2)CC1 [Hoechst 33258, Hoechst 33258 pentahydrate (bis-benzimide: BisBnz]
effect of TPABr on the stability [1]: marginal

CC[n+]1c(-c2ccccc2)c2cc(N)ccc2c2ccc(N)cc21 [ethidium bromide]
effect of TPABr on the stability [1]: marginal

CCCCC[N+](CCCCC)(CCCCC)CCCCC.[OH-] [TPAOH, Tetrapentylammonium hydroxide]
Dye stabilization at 45° C. ([2]; additive 7.3 mM): Yes (The stain in the gel was considered stabilized if the fluorescence intensity of the DNA was more than 80% compared to when the gel was freshly prepared with stain)
Dye stabilization at 45° C. ([2]; additive 14.6 mM): Yes (The stain in the gel was considered stabilized if the fluorescence intensity of the DNA was more than 80% compared to when the gel was freshly prepared with stain)

CCCC[N+](CCCC)(CCCC)CCCC.[OH-] [Tetrabutylammonium hydroxide (TBAOH), Tetrabutylammonium hydroxide]
Dye stabilization at 45° C. ([2]; additive 14.6 mM): Yes (The stain in the gel was considered stabilized if the fluorescence intensity of the DNA was more than 80% compared to when the gel was freshly prepared with stain)

CCCN(CCCN(C)C)c1cc(/C=C2/Sc3ccccc3N2C)c2ccccc2[n+]1-c1ccccc1 [SYBR Green I]
t½ with TPABr [3]: over 100 days
t½ without TPABr [3]: 120 h
increase of half-life by tetramethylammonium hydroxide alone [4]: 4 fold

Tween-20
Dye stabilization at 45° C. ([2]; additive 0.1% (v/v)): No

CCCCCCCCCCCC[N+](C)(C)C.[Br-] [Dodecyltrimethylammonium bromide]
Dye stabilization at 45° C. ([2]; additive 28 mM): No
